Experimental findings from patent publication US20260325500A1, “METHODS AND COMPOSITIONS FOR TREATING ACUTE STRESS DISORDER” (BioXcel Therapeutics, Inc., priority 2022, published 2026) are described below.

Where a name gives a salt, the structure may show the parent alone.

Assay [1] deals with rat forced swim test model (depressive-like behavior). In words: Forced swim test in dark phase (Example 4). As to conditions: 1 mg/kg, i.m.; versus vehicle saline. The assay is classed as in vivo, Sprague Dawley rats. The text has this:
Animal groups: Male Sprague Dawley (SD) rats (8-10 weeks old) were grouped housed 2 per cage in standard animal cages with facilities for pelleted food and drinking water in polycarbonate bottle with stainless steel sipper tubes. During the experimental period, animals were housed in a single experimental room. Rats were distributed in 7 different experimental groups with 9-12 rats per group as illustrated in Table 8. Animals were distributed to different groups based on body weight data. Each experimental group was also coded so that the experimenter became unaware of the true experimental group at the time FST trial.
Animals were housed in an environment-controlled room at 22±3° C. and relative humidity of 30 to 70 percent. During the study, 12/12 light/dark cycles were maintained. Lights of the acclimatization area were switched off at 06:00 PM. All experiments were carried out at ambient temperature under dark phase of lighting (between 06:00 PM to 06:00 AM). Adequate fresh air supply of 12-15 air changes/hour was maintained in the experimental room. The maximum and minimum temperature and relative humidity in the experimental rooms was recorded once daily. The relative humidity in the experimental room was calculated daily from dry and wet bulb temperature recordings.
Swim 1 was carried out between 18:30 to 21:30.
Swim 2 was carried out between 19:30 to 21:30. Animals were administered test compounds from 18:30 onwards in staggered manner 60 minutes before FST 2.
Forced swim test was carried out in dark phase
On Day 1, animals were subjected to forced swim test training for 15 minutes (Swim 1) and on Day 2, Swim 2 was carried out post treatment.
On day 2 animals were dosed with respective treatment 60 min prior to performing FST.
Forced swim test (Swim 2) was scored manually with no video recording.
Forced swim test (FST), was used to study the depressive-like behavior in rodents. The test was carried out in transparent cylindrical glass containers measuring 46 cm in height and 20 cm in diameter.
There were 2 swim sessions, 24 h apart. The first session, Swim 1 was the pretest/training stage (15 min) and the second session, Swim 2, was the test stage (8 min).
In swim 2, first 1-minute data was excluded from analysis and rest 7 minutes data was considered. In 7 minutes, data, it was divided 5 minutes and 2 minute.
Twenty-four hours after the start of Swim 1, the test swim (Swim 2) was carried out.
Rat was placed in the water-filled cylinder for 8 min (Swim 2).
The duration of time spent immobile, swimming, and climbing was observed by an observer blind to the treatment group.
Immobility period: A rat was judged to be immobile when it remained floating in the water without struggling and was making only those movements necessary to keep its head above water.
Statistical analysis: One Way ANOVA, Dunnet's multiple comparison test was applied with respect to vehicle saline and Tukey's multiple comparison test was applied to compare the data in between the groups using GraphPad Prism version 9 software.

Assay [2] has as its system aggressive behavior of male Swiss albino mice. The assay can be described thus: Resident intruder task, aggressive behavior (Example 5). The assay is classed as in vivo. As to conditions: for agitation/aggression in resident mice: mouse, in vivo. The source says:
Animal groups: Swiss albino male mice were distributed in 13 different experimental groups with 6-14 mice per group as illustrated in Table 9. Each experimental group was also coded so that the experimenter became unaware of the true experimental group during RI assay.
Rationale: The resident-intruder stress is an ethologically relevant model to examine mechanisms underlying stress-related psychiatric disorders. In male rats, a single resident-intruder exposure activates LC neurons. Considered as a major stress response system, LC-NE activation is critical in maintaining arousal in response to acute stress.
Study drugs: The test substances (Dexmedetomidine hydrochloride, latrepirdine dihydrochloride hydrate and sodium valproate) were dissolved in 0.9% normal saline which served as the vehicle. β-Estradiol was dissolved in 0.9% normal saline.
Study design and dosing: Bilateral ovariectomy surgery was carried out in 3-4 weeks old female Swiss albino mice as per the standard methods (Alagwu and Nneli, 2005). Animals were anesthetized using Avertin (2,2,2-Tribromoethanol) at 250 mg/kg, i.p. and were laid down on the surgery table and fixed with adhesive plaster. A midline incision was made on the dorsal region below the rib and 1 cm lateral to the either side of midline, a small incision was made on fascia to isolate the adipose fat supporting the ovaries. By slowly pulling out the fat tissue, the ovary was identified and excised the following uterine horn ligation with silk sutures. Fascia was covered with sutures and similar procedure was repeated on the other side as well. Superficial skin layers were sutured and gentamicin (80 mg/kg, s.c.) was given as antibiotic and meloxicam (4 mg/kg, s.c.) as analgesic, then povidone iodine was applied on superficial skin layers. Polyethylene glycol (PEG) was applied to prevent drying of eye balls and kept for recovery period of 3 weeks (surgery was carried by a single experimenter). Male Swiss albino mice (25-40 grams, Resident animals) was housed individually i.e., 1 animal/cage with an ovariectomized female Swiss albino mice for a period of three weeks (Isolated habituation). During this habituation period, female mice were treated with β-Estradiol at a dose of 0.2 mg/kg, s.c. Male Swiss albino mice (10-20 grams, Intruder animals) were housed 5 animals/cage for a period of five days (Social habituation). On the day of exposure, animals were brought into the experimental room 60 minutes before starting the experiment, to habituate them to the experimental conditions. […]
Statistical analysis: Data obtained was compared with basal scoring by using Student's paired two tailed t-test. Duration of attack, and latency of attack between the groups was analyzed using One-Way ANOVA followed by Bonferroni's posthoc test. […]

Take `Cc1ccc2c(c1)c1c(n2CCc2ccc(C)nc2)CCN(C)C1` [latrepirdine dihydrochloride hydrate]: the “increase in swimming time” value in assay [1] is reported as 9.8%. Further, the duration of attack result in assay [2] (1 mg/kg, 3 mg/kg and 10 mg/kg, i.p.) is on record as “significantly decreased”. Further, the “agitation/aggression in resident mice” value in assay [2] is given as “decreased agitation/aggression”.

On to `Cc1ccc2c(c1)c1c(n2CCc2ccc(C)nc2)CCN(C)C1` [latrepirdine, 2,8-dimethyl-5-[2-(6-methylpyridin-3-yl)ethyl]-3,4-dihydro-1H-pyrido[4,3-b]indole], for which the “mean duration of attack” value in assay [2] (latrepirdine 10 mg/kg, i.p.) amounted to 36.87 s. The “agitation/aggression in resident mice” value in assay [2] is “significantly decreased agitation/aggression in resident mice”.
